Laboratory results as given in the supplement of paper PMC5908809.

Tests used:
[1] = tested on: normal NK cells expanded with K562-aAPC; test: drug sensitivity score (DSS) (DSS units); higher = more sensitive; extreme values may be limits of the assay; conditions: 72 h; IL-2 2.5 ng/mL
Method: (§1)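 Drug sensitivity and resistance testing on K562-aAPC-expanded normal NK cells: 5 concentrations (10-fold steps over a 10,000-fold range), 72 h at 37 °C, viability by CellTiter-Glo normalised to DMSO and benzethonium chloride controls; DSS from the fitted curve.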

NK-92 (IL-2 2.5 ng/mL) [2] = test: as above; conditions: 72 h
NK-YS (IL-2 2.5 ng/mL) [3] = test: as above; conditions: 72 h
[4] = tested on: normal primary NK cells, pool 3 (3 donors) (IL-2 2.5 ng/mL); test: as above; conditions: 72 h
[5] = tested on: normal primary NK cells, pool 1 (3 donors), resting (IL-2 0 ng/mL); test: as above; conditions: 72 h
KHYG-1 (IL-2 2.5 ng/mL) [6] = test: as above; conditions: 72 h
[7] = tested on: normal primary NK cells, pool 1 (3 donors) (IL-2 2.5 ng/mL); test: as above; conditions: 72 h
[8] = tested on: normal primary NK cells, pool 2 (3 donors) (IL-2 2.5 ng/mL); test: as above; conditions: 72 h
SNK-6 (IL-2 2.5 ng/mL) [9] = test: as above; conditions: 72 h
KAI3 (IL-2 2.5 ng/mL) [10] = test: as above; conditions: 72 h
NKL (IL-2 2.5 ng/mL) [11] = test: as above; conditions: 72 h
IMC-1 (IL-2 20 ng/mL) [12] = test: as above; conditions: 72 h
YT (IL-2 2.5 ng/mL) [13] = test: as above; conditions: 72 h
DERL-7 (IL-2 2.5 ng/mL) [14] = test: as above; conditions: 72 h
NK-92 (IL-2 2.5 ng/mL) [15] = test: percent inhibition of viability; higher = more inhibition; conditions: 72 h
NK-YS (IL-2 2.5 ng/mL) [16] = test: as above; conditions: 72 h
[17] = tested on: normal primary NK cells, pool 3 (3 donors) (IL-2 2.5 ng/mL); test: as above; conditions: 72 h
[18] = tested on: normal primary NK cells, pool 1 (3 donors), resting (IL-2 0 ng/mL); test: as above; conditions: 72 h
KHYG-1 (IL-2 2.5 ng/mL) [19] = test: as above; conditions: 72 h
[20] = tested on: normal primary NK cells, pool 1 (3 donors) (IL-2 2.5 ng/mL); test: as above; conditions: 72 h
[21] = tested on: normal primary NK cells, pool 2 (3 donors) (IL-2 2.5 ng/mL); test: as above; conditions: 72 h
SNK-6 (IL-2 2.5 ng/mL) [22] = test: as above; conditions: 72 h
KAI3 (IL-2 2.5 ng/mL) [23] = test: as above; conditions: 72 h
NKL (IL-2 2.5 ng/mL) [24] = test: as above; conditions: 72 h
IMC-1 (IL-2 20 ng/mL) [25] = test: as above; conditions: 72 h
YT (IL-2 2.5 ng/mL) [26] = test: as above; conditions: 72 h
DERL-7 (IL-2 2.5 ng/mL) [27] = test: as above; conditions: 72 h
[28] = tested on: normal NK cells expanded with K562-aAPC; test: as above; conditions: 72 h, IL-2 2.5 ng/mL
Method: as §1

CN1CC[C@H](c2c(O)cc(O)c3c(=O)cc(-c4ccccc4Cl)oc23)[C@H](O)C1 [Alvocidib] (max concentration tested 10000 nM)
Conditions	drug sensitivity score
DERL-7 (IL-2 2.5 ng/mL) [14]	21.2
IMC-1 (IL-2 20 ng/mL) [12]	16.6
KAI3 (IL-2 2.5 ng/mL) [10]	26.8
KHYG-1 (IL-2 2.5 ng/mL) [6]	22.6
NK-92 (IL-2 2.5 ng/mL) [2]	23.4
NK-YS (IL-2 2.5 ng/mL) [3]	22.1
NKL (IL-2 2.5 ng/mL) [11]	23
SNK-6 (IL-2 2.5 ng/mL) [9]	18.3
YT (IL-2 2.5 ng/mL) [13]	22.6
[1]	18.4
[4]	21.3
[5]	15.8
[7]	20.4
[8]	21.1

percent inhibition of viability [%]
Conditions	1 nM	10 nM	100 nM	1000 nM	10000 nM
DERL-7 (IL-2 2.5 ng/mL) [27]	-0.06	-8.43	20	99.6	101
IMC-1 (IL-2 20 ng/mL) [25]	-6.84	-2.57	-23.3	98.5	100
KAI3 (IL-2 2.5 ng/mL) [23]	-3.44	8.97	69.4	99.3	104
KHYG-1 (IL-2 2.5 ng/mL) [19]	3.43	-0.43	31.6	103	106
NK-92 (IL-2 2.5 ng/mL) [15]	1.2	-10.9	40.2	99.5	104
NK-YS (IL-2 2.5 ng/mL) [16]	-0.27	3.87	33.1	98.8	103
NKL (IL-2 2.5 ng/mL) [24]	-9.8	1.18	36	101	109
SNK-6 (IL-2 2.5 ng/mL) [22]	16.1	27.2	40	54.8	50.7
YT (IL-2 2.5 ng/mL) [26]	1.4	6.09	33.3	101	104
[17]	-16.4	-9.75	22.2	97.3	98.7
[18]	6.48	-25.6	-4.81	88.6	91.6
[20]	-0.02	-24.2	17.8	96.8	97.3
[21]	-15.2	-10.6	25.6	93.8	95.7
[28]	-1.75	-1.8	2.89	100	101
